In patent EP4685143A1 (Vivozon,Inc., priority 2023, dated 2024):

Assays:
human HDAC6 enzyme = target: T1, human HDAC6 enzyme (Homo sapiens, UniProt Q9UBN7); test: Fluorescence-based enzyme activity assay; type: biochemical; details: substrate with fluorescent peptide of p53 residues 379-382, 30°C for 1 hour
T1 sequence (Q9UBN7 1-1215): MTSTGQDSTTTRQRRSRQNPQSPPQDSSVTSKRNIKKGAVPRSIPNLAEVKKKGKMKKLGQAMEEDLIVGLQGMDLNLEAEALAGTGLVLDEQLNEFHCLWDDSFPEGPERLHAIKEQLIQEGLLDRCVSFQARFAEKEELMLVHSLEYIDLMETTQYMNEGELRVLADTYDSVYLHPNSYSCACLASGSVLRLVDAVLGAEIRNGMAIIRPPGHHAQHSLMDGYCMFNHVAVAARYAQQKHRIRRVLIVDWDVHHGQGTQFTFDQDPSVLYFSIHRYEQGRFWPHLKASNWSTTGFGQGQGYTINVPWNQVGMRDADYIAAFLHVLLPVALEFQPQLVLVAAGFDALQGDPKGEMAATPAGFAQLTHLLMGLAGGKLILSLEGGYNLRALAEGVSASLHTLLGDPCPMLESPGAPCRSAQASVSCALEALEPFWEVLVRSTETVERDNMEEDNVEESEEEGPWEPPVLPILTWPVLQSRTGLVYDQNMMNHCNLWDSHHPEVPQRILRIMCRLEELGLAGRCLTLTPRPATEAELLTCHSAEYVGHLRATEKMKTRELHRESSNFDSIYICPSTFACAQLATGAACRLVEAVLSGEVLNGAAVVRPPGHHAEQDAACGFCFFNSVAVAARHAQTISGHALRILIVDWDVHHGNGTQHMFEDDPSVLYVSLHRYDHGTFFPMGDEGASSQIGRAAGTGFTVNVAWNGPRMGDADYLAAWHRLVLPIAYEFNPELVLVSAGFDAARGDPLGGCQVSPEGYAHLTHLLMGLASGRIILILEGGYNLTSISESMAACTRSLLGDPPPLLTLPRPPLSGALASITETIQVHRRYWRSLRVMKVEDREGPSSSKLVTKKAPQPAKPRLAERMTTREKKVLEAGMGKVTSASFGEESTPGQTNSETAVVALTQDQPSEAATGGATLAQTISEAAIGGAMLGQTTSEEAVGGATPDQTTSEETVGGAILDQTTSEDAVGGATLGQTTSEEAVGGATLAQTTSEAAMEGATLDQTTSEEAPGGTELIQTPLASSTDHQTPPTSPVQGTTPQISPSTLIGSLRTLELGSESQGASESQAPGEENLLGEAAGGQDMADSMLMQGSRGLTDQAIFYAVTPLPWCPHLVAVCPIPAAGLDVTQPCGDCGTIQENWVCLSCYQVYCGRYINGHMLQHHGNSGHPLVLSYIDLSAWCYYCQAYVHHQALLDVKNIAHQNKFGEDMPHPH
Protocol: Experimental Example 1: Fluorescence-based enzyme activity assay
In order to measure the inhibitory effect of the compounds on the activity of histone deacetylase 6 (HDAC6), an enzyme activity assay was performed to evaluate the enzyme activity by reacting the human HDAC6 enzyme with a substrate to which a fluorescent peptide of p53 residues 379-382 was attached. The test compounds were dissolved in 100% DMSO at a concentration of 10 mM to prepare a stock solution. A starting concentration of 30 µM was prepared from the stock solution, followed by 1/3 serial dilutions to prepare the test buffer solution. Trichostatin A (TSA)-which is the reference compound used to confirm the validity of the experiment-was serially diluted by 1/3 with the test buffer solution, starting from the highest concentration of 1 µM. To react the test compounds and TSA prepared in the test buffer with the HDAC6 enzyme, they were dispensed into a 96-well black plate and spin-down of the plate was performed. Then, the reaction was carried out at room temperature for 10 minutes. After 10 minutes, the substrate was dispensed, and the plate was sealed. The reaction was carried out at 30°C for 1 hour under light-blocking conditions. Fluorescence values were measured using a plate reader (wavelength: excitation/emission = 360/460 nm). The fluorescence measurements were normalized to the HDAC6 enzyme-treated group as 100% and the untreated group as 0%, respectively. […]

Human mGluR5 = target: T2, Human mGluR5 (Homo sapiens, UniProt P41594); test: Fluorescence-based Ca2+ mobilization assay; details: HEK293 cell line permanently overexpressing mGluR5, Ca2+ level change induced by L-glutamate at EC80 concentration, FLIPR Tetra
T2 construct: expressed in transfected cells; host or cells: HEK293
T2 sequence (P41594 21-1212): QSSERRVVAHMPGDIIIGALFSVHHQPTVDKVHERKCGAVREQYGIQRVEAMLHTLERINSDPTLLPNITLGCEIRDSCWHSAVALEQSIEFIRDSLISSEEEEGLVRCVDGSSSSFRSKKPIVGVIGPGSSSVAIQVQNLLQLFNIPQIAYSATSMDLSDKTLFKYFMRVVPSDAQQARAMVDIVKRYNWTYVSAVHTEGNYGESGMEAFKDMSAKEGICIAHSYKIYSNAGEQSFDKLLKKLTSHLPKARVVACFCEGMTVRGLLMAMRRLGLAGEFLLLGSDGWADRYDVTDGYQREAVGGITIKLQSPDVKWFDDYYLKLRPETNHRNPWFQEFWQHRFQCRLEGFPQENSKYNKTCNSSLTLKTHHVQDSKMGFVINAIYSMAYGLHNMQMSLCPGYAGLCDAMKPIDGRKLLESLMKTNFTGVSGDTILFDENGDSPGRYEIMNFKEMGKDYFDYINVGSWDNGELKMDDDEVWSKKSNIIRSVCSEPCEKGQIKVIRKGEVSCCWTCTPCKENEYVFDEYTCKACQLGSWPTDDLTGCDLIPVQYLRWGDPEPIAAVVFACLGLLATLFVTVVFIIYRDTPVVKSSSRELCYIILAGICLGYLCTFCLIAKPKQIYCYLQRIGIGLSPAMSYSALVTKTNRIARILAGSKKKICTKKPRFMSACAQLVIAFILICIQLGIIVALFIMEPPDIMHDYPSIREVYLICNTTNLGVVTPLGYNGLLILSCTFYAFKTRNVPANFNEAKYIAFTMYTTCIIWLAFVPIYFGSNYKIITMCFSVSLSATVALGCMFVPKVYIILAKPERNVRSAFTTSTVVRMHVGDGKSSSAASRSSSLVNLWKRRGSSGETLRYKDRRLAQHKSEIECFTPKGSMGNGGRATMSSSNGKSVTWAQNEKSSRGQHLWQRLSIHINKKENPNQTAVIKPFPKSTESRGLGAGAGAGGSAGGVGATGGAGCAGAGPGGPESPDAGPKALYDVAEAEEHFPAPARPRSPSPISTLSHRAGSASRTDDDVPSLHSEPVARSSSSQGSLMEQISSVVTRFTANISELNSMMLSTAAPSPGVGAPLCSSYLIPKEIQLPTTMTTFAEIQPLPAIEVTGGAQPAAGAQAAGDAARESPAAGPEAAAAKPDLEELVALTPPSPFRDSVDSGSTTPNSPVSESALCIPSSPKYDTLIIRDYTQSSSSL
Protocol: Experimental Example 2: Fluorescence-based Ca^2+ mobilization assay
In order to measure the activity of the antagonist on the mGluR5, an experiment was carried out to check the change in the intracellular Ca^2+ level using the HEK293 cell line permanently overexpressing the mGluR5. The cells in the cell culture medium were aliquoted into a 384-well plate coated with poly-D-lysine and cultured in a 37°C incubator supplied with 5% CO2. The next day, the medium was removed and a dye loading buffer-in which a reagent capable of measuring Ca^2+ was dissolved-was added, and then incubated at 37°C for 60 minutes. The test compounds were dissolved in 100% DMSO at a final concentration of 10 mM to make a stock solution. The starting concentration of 10 µM was prepared from the stock solution, followed by serial dilutions to prepare working solutions (test compound working solutions). The test compound working solutions were added to the cells that were incubated in the dye loading buffer, which were maintained for 30 minutes at room temperature in a light-shielding state before measurement. The Ca^2+ level change induced by L-glutamate at EC80 concentration was measured for 2 minutes using FLIPR Tetra (MDS Analytical Technologies). The fluorescent Ca^2+ signal values in the presence of the test compounds were normalized to the fluorescent signal elicited by EC80 concentration of L-glutamate as 100% and that elicited by vehicle as 0% to estimate % inhibition of the test compounds. […]

Row | SMILES | IC50 (human HDAC6 enzyme) | IC50 (Human mGluR5)
1 | Cc1ccc(C#CCn2ccc(-c3nnc(C(F)F)o3)cc2=O)cc1 [Example 17, 4-(5-(difluoromethyl)-1,3,4-oxadiazol-2-yl)-1-(3-(p-tolyl)prop-2-yn-1-yl)pyridin-2(1H)-one] | 100 to 500 nM | 1000 to 2000 nM
2 | O=c1cc(-c2nnc(C(F)F)o2)ccn1CC#Cc1cccc(C(F)(F)F)c1 [Example 19, 4-(5-(difluoromethyl)-1,3,4-oxadiazol-2-yl)-1-(3-(3-(trifluoromethyl)phenyl)prop-2-yn-1-yl)pyridin-2(1H)-one] | 100 to 500 nM | 1000 to 2000 nM
3 | O=c1cc(-c2nnc(C(F)F)o2)ccn1CC#Cc1cccc(Br)c1 [Example 25, 1-(3-(3-bromophenyl)prop-2-yn-1-yl)-4-(5-(difluoromethyl)-1,3,4-oxadiazol-2-yl)pyridin-2(1H)-one] | 100 to 500 nM | 500 to 1000 nM
4 | O=c1cc(-c2noc(C(F)F)n2)ccn1CC#Cc1cccc(Cl)c1 [Example 30, 1-(3-(3-chlorophenyl)prop-2-yn-1-yl)-4-(5-(difluoromethyl)-1,2,4-oxadiazol-3-yl)pyridin-2(1H)-one] | 500 to 1000 nM | 500 to 1000 nM
5 | N#Cc1cccc(C#CCn2ccc(-c3nnc(C(F)F)o3)cc2=O)c1 [Example 31, 3-(3-(4-(5-(difluoromethyl)-1,3,4-oxadiazol-2-yl)-2-oxopyridin-1(2H)-yl)prop-1-yn-1-yl)benzonitrile] | < 100 nM | 500 to 1000 nM
6 | O=c1cc(-c2nnc(C(F)F)o2)ccn1CC#Cc1cc(Cl)ccc1F [Example 36, 1-(3-(5-chloro-2-fluorophenyl)prop-2-yn-1-yl)-4-(5-(difluoromethyl)-1,3,4-oxadiazol-2-yl)pyridin-2(1H)-one] | 100 to 500 nM | 1000 to 2000 nM
7 | CCC(C#Cc1cccc(Cl)c1)Oc1cc(-c2nnc(C(F)F)o2)ccn1 (stereo not drawn) [Example 44] |  | 1000 to 2000 nM
8 | Cc1cc(-c2nnc(C(F)F)o2)cc(=O)n1CC#Cc1cccc(Cl)c1 [Example 45, 1-(3-(3-chlorophenyl)prop-2-yn-1-yl)-4-(5-(difluoromethyl)-1,3,4-oxadiazol-2-yl)-6-methylpyridin-2(1H)-one] | 100 to 500 nM | 500 to 1000 nM
9 | O=c1cc(-c2nnc(C(F)F)o2)c(Br)cn1CC#Cc1cccc(Cl)c1 [Example 46, 5-bromo-1-(3-(3-chlorophenyl)prop-2-yn-1-yl)-4-(5-(difluoromethyl)-1,3,4-oxadiazol-2-yl)pyridin-2(1H)-one] |  | 500 to 1000 nM

Second part, the compound after the results:

Row | IC50 (human HDAC6 enzyme) | IC50 (Human mGluR5) | SMILES
10 | 500 to 1000 nM | 1000 to 2000 nM | O=c1cc(-c2noc(C(F)(F)F)n2)ccn1CC#Cc1cccc(Cl)c1 [Example 7, 1-(3-(3-chlorophenyl)prop-2-yn-1-yl)-4-(5-(trifluoromethyl)-1,2,4-oxadiazol-3-yl)pyridine-2(1H)-one]
11 | < 100 nM | 500 to 1000 nM | O=c1cc(-c2nnc(C(F)F)o2)ccn1CC#Cc1cccc(Cl)c1 [Example 15, 1-(3-(3-chlorophenyl)prop-2-yn-1-yl)-4-(5-(difluoromethyl)-1,3,4-oxadiazol-2-yl)pyridin-2(1H)-one]
12 | < 100 nM | 1000 to 2000 nM | Cc1cccc(C#CCn2ccc(-c3nnc(C(F)F)o3)cc2=O)c1 [Example 18, 4-(5-(difluoromethyl)-1,3,4-oxadiazol-2-yl)-1-(3-(m-tolyl)prop-2-yn-1-yl)pyridin-2(1H)-one]
13 | 100 to 500 nM | 1000 to 2000 nM | O=c1cc(-c2nnc(C(F)F)o2)ccn1CC#Cc1cccc(OC(F)(F)F)c1 [Example 20, 4-(5-(difluoromethyl)-1,3,4-oxadiazol-2-yl)-1-(3-(3-(trifluoromethoxy)phenyl)prop-2-yn-1-yl)pyridin-2(1H)-one]
14 | < 100 nM | 1000 to 2000 nM | O=c1cc(-c2nnc(C(F)F)o2)ccn1CC#Cc1ccnc(Cl)c1 [Example 23, 1-(3-(2-chloropyridin-4-yl)prop-2-yn-1-yl)-4-(5-(difluoromethyl)-1,3,4-oxadiazol-2-yl)pyridin-2(1H)-one]
15 | < 100 nM | 500 to 1000 nM | Cc1cccc(C#CCn2ccc(-c3nnc(C(F)F)o3)cc2=O)n1 [Example 24, 4-(5-(difluoromethyl)-1,3,4-oxadiazol-2-yl)-1-(3-(6-methylpyridin-2-yl)prop-2-yn-1-yl)pyridin-2(1H)-one]
16 |  | 500 to 1000 nM | O=c1cc(-c2nnc(C(F)F)o2)ccn1CC#Cc1cccc(C(F)F)c1 [Example 26, 4-(5-(difluoromethyl)-1,3,4-oxadiazol-2-yl)-1-(3-(3-(difluoromethyl)phenyl)prop-2-yn-1-yl)pyridin-2(1H)-one]
17 | < 100 nM | 1000 to 2000 nM | O=c1cc(-c2nnc(C(F)F)o2)ccn1CC#Cc1cccc(OC(F)F)c1 [Example 27, 1-(3-(3-(difluoromethoxy)phenyl)prop-2-yn-1-yl)-4-(5-(difluoromethyl)-1,3,4-oxadiazol-2-yl)pyridin-2(1H)-one]
18 | 500 to 1000 nM | 1000 to 2000 nM | O=c1cc(-c2nnc(C(F)(F)F)o2)ccn1CC#Cc1cccc(Cl)c1 [Example 28, 1-(3-(3-chlorophenyl)prop-2-yn-1-yl)-4-(5-(trifluoromethyl)-1,3,4-oxadiazol-2-yl)pyridin-2(1H)-one]
